Test: DPPH (2,2-diphenyl-1-picrylhydrazyl) radical scavenging antioxidant test
Assay type: biochemical
Conditions: 517 nm; for Inhibition (radical scavenging inhibition): 0.2 mL DPPH (0.75 mM), compound 3 μM in ethanol, 30 minutes in the dark
Protocol: The antioxidant properties of the 8-(2-hydroxybenzylideneamino)naphthalene-1,3-disulfonic acid compound were studied by adding 0.2 mL DPPH (0.75 mM)) to 8-(2-hydroxybenzylideneamino)naphthalene-1,3-disulfonic acid (III) (3 μM) in ethanol. After 30 minutes of incubation in the dark, the absorbance was read against a blank at 517 nm. Ascorbic acid (vitamin C) was used as standard antioxidants (positive control). A blank sample was prepared by 0.2 ml of DPPH in 3 mL ethanol. A negative control sample was run using ethanol instead of the sample. The radical scavenging inhibition was calculated using the following equation: […]
The antioxidant activity for the synthesized compound is listed in Table 1, using Vitamin C as a reference.

Row | SMILES | Inhibition (radical scavenging inhibition) [%] | antioxidant potential compared to vitamin C (in words) (DPPH in vitro test, vitamin C as positive control)
1 | O=S(=O)(O)c1cc(S(=O)(=O)O)c2c(/N=C/c3ccccc3O)cccc2c1 [Product III, 8-(2-hydroxybenzylideneamino)naphthalene-1,3-disulfonic acid] | 54 | high potential as an antioxidant
2 | O=C1O[C@H]([C@@H](O)CO)C(O)=C1O [vit c, Ascorbic acid, reference compound] | 74 | 
